Results reported in US8039430B2 (University of Wollongong, priority 2005, dated 2011).
≈ marks a conversion by molar mass, not a printed value. Like-named read-outs stand apart in the source and are kept apart here.

How the values were obtained:
[1] = test system: #449 E. faecium van B ST17; experiment: Antibacterial assay (MIC), VRE strain #449, Enterococossel Broth, Example 1; type: cell-based, Enterococcus faecium; details: Enterococcus faecium, read-out: 449 (minimum inhibitory concentration)
Procedure: (§1) Antibacterial Assay Method for Staphylococcus aureus (ATCC 6538P) and Enterococcus faecium
(§2) VRE strains: #243 E. faecium van B ST17 #449 E. faecium van B ST17
(§3) Compounds are accurately weighed out (between approx. 1-2 mg) and dissolved in either 10% methanol/water (v/v) or 100% DMSO to a final stock concentration of 5 mg/ml.
(§4) Compounds are then diluted 1/10 in H2O to a test conc of 500 ug/ml ready for immediate use, or storage at −20° C.
(§5) Grow up an o/n starter culture of Staphylococcus aureus and each VRE strain by diluting previous culture (stored at 4° C.) 1/1000 into −50 mls Luria Broth (LB) for S. aureus or Enterococossel Broth (EB) for the VRE strains.
(§6) Incubate o/n at 37° C.+shaking. • A glycerol stock (0.6 mls bacterial culture, 0.3 mls glycerol) of each strain is kept at −80° C. if needed. Assay Set Up:
(§7) In a 96well round bottom plate add 50 ul LB/well for the S. aureus plate and add 50 ul EB/well for the VRE plates.
(§8) Add 50 ul of compound dilution (500 ug/ml test conc) to each of three top row wells (ie: tested in triplicate) and dilute 1 in 2 from the top row to the bottom row.
(§9) After the compound dilution, add to each well 50 ul of a 1/1000 dilution of the appropriate overnight bacterial culture, either S. aureus or the different VRE strains.
(§10) Plates are incubated at 37° C. on a slowly rotating plate incubator. • test concentrations are (in ug/ml) 125, 62.5, 31.25, 15.6, 7.8, 3.9, 1.9, 0.98 • final DMSO concentration in the first row of wells of the assay is 2.5% • Vancomycin is included in the assay (in triplicate) at a starting test concentration of 5 ug/ml for S. aureus and 125 ug/ml for the VRE strains Reading Results of Assay:
(§11) After incubation for 24 hrs the plates are removed and read. Inhibition of bacterial growth is indicated by lack of bacterial pellet or a clear well. In the VRE plates bacterial growth is indicated by black coloured media (EB) as well as a bacterial pellet.
(§12) Untreated control wells are included in the assay to check they all contain bacterial pellets. Uninoculated untreated control wells are included to check they all contain clear medium.
(§13) The plates are analysed for MIC and the results tabulated.

[2] = test system: #820 E. faecium van A ST17; experiment: Antibacterial assay (MIC), VRE strain #820, Enterococossel Broth, Example 1; type: cell-based, Enterococcus faecium; details: Enterococcus faecium, read-out: 820 (minimum inhibitory concentration)
Procedure: as §1
(§14) #820 E. faecium van A ST17 #987 E. faecium van B ST39
as §3, §4, §5, §6, §7, §8, §9, §10, §11, §12, §13

[3] = test system: Staphylococcus aureus (ATCC 6538P); experiment: Antibacterial assay (MIC), Staphylococcus aureus ATCC 6538P, Luria Broth, Example 1; type: cell-based; details: Staphylococcus aureus, ATCC6538P, read-out: Sa (minimum inhibitory concentration)
Procedure: as §1
Staphylococcus aureus (ATCC 6538P)
as §3, §4, §5, §6, §7, §8, §9, §10, §11, §12, §13

[4] = test system: #243 E. faecium van B ST17; experiment: Antibacterial assay (MIC), VRE strain #243, Enterococossel Broth, Example 1; type: cell-based, Enterococcus faecium; details: Enterococcus faecium, read-out: 243 (minimum inhibitory concentration)
Procedure: as §1, §2, §3, §4, §5, §6, §7, §8, §9, §10, §11, §12, §13

[5] = test system: #987 E. faecium van B ST39; experiment: Antibacterial assay (MIC), VRE strain #987, Enterococossel Broth, Example 1; type: cell-based, Enterococcus faecium; details: Enterococcus faecium, read-out: 987 (minimum inhibitory concentration)
Procedure: as §1, §14, §3, §4, §5, §6, §7, §8, §9, §10, §11, §12, §13

[6] = Example 1 compounds, VRE #449 E. faecium van B, 24 hrs, 37° C.
[7] = Example 1 compounds, VRE #820 E. faecium van A, 24 hrs, 37° C.
[8] = Example 1 compounds, S. aureus ATCC 6538P, 24 hrs, 37° C., range if at least two of three values fell within it
[9] = Example 1 compounds, VRE #243 E. faecium van B, 24 hrs, 37° C.
[10] = Example 1 compounds, VRE #987 E. faecium van B, 24 hrs, 37° C.

Row | SMILES | MIC [1, 6] [µg/mL] | MIC [2, 7] [µg/mL] | MIC [3, 8] [µg/mL] | MIC [4, 9] [µg/mL] | MIC [5, 10] [µg/mL] | MIC ([1]; VRE, 24 h) [µg/mL] | MIC ([2]; VRE, 24 h) [µg/mL] | MIC ([3]; 24 h) [µg/mL] | MIC ([4]; VRE, 24 h) [µg/mL] | MIC ([5]; VRE, 24 h) [µg/mL]
1 | CC(C)CCOc1ccc2ccccc2c1-c1c(OCC(=O)N[C@H](CCCCN)C(=O)N[C@H](CCCNC(=N)N)C(=O)N[C@@H](CC(C)C)C(=O)OCc2ccccc2)ccc2ccccc12 (atropisomer, axis not shown) [Compound 10] | 15.7 to 62.5 (≈ 17.4 to 69.3 µM) | 15.7 to 62.5 (≈ 17.4 to 69.3 µM) | 0.99 to 15.6 (≈ 1.1 to 17.3 µM) | 15.7 to 62.5 (≈ 17.4 to 69.3 µM) | 15.7 to 62.5 (≈ 17.4 to 69.3 µM) | – | – | – | – | –
2 | C=CC[C@H](NC(=O)[C@@H](CCCNC(=N)N)NC(=O)[C@@H](CCCCN)NC(=O)COc1ccc2ccccc2c1-c1c(OCC2CCC2)ccc2ccccc12)C(=O)OCc1ccccc1.Cl.Cl (atropisomer, axis not shown) [Compound 24] | 15.7 to 62.5 | 15.7 to 62.5 | 0.99 to 15.6 | 15.7 to 62.5 | 15.7 to 62.5 | – | – | – | – | –
3 | Cc1ccc(COC(=O)[C@H](CC(C)C)NC(=O)[C@@H](CCCNC(=N)N)NC(=O)[C@@H](CCCCN)NC(=O)COc2ccc3ccccc3c2-c2c(OCCC(C)C)ccc3ccccc23)cc1.Cl.Cl (atropisomer, axis not shown) [Compound 9] | 15.7 to 62.5 | 15.7 to 62.5 | 0.99 to 15.6 | > 62.6 | 15.7 to 62.5 | – | – | – | – | –
4 | CC(C)CCOc1ccc2ccccc2c1-c1c(OCC(=O)N[C@H](CCCCN)C(=O)N[C@H](CCCNC(=N)N)C(=O)NC2(C(=O)OCc3ccccc3)CCCC2)ccc2ccccc12.Cl.Cl (atropisomer, axis not shown) [Compound 20] | 15.7 to 62.5 | 15.7 to 62.5 | 0.99 to 15.6 | 15.7 to 62.5 | 15.7 to 62.5 | – | – | – | – | –
5 | C=CCOc1ccc2ccccc2c1-c1c(OCC(=O)N[C@H](CCCN)C(=O)Nc2cccc(C(=O)NOCc3ccccc3)c2)ccc2ccccc12 [Compound 43] | > 62.6 | 15.7 to 62.5 (≈ 21.7 to 86.5 µM) | 0.99 to 15.6 (≈ 1.37 to 21.6 µM) | > 62.6 | > 62.6 | – | – | – | – | –
6 | C=CCOc1ccc2ccccc2c1-c1c(OCC(=O)N[C@H](CCCNC(=N)N)C(=O)Nc2cccc(C(=O)OCc3ccccc3)c2)ccc2ccccc12.Cl (atropisomer, axis not shown) [Compound 45] | 15.7 to 62.5 | 15.7 to 62.5 | 0.99 to 15.6 | 15.7 to 62.5 | 15.7 to 62.5 | – | – | – | – | –
7 | C=CCOc1ccc2ccccc2c1-c1c(OCC(=O)N[C@H](CCCN)C(=O)Nc2cccc(C(=O)OCc3ccccc3)c2)ccc2ccccc12.Cl (atropisomer, axis not shown) [Compound 42] | > 62.6 | > 62.6 | 15.7 to 62.5 | > 62.6 | > 62.6 | – | – | – | – | –
8 | CC(C)CCOc1ccc2ccccc2c1-c1c(OCC(=O)N[C@H](CCCCN)C(=O)N[C@H](CCCNC(=N)N)C(=O)N[C@@H](Cc2ccccc2)C(=O)OCc2ccccc2)ccc2ccccc12.Cl.Cl (atropisomer, axis not shown) [Compound 19] | 15.7 to 62.5 | 15.7 to 62.5 | 0.99 to 15.6 | 15.7 to 62.5 | 15.7 to 62.5 | – | – | – | – | –
9 | C=CCOc1ccc2ccccc2c1-c1c(OCC(=O)N[C@H](CCCN)C(=O)Nc2cccc(C(=O)OC)c2)ccc2ccccc12.Cl (atropisomer, axis not shown) [Compound 41] | > 62.6 | > 62.6 | 0.99 to 15.6 | > 62.6 | > 62.6 | – | – | – | – | –
10 | CC(C)CCOc1ccccc1-c1ccccc1OCC(=O)N[C@H](CCCCN)C(=O)N[C@H](CCCNC(=N)N)C(=O)N[C@@H](CC(C)C)C(=O)OCc1ccccc1.Cl.Cl [Compound 11] | 15.7 to 62.5 | 15.7 to 62.5 | 0.99 to 15.6 | 15.7 to 62.5 | 15.7 to 62.5 | – | – | – | – | –
11 | NCCCC[C@@H](NC(=O)CCCOc1ccc2ccccc2c1-c1c(OCCCC(=O)N[C@H](CCCCN)C(=O)OCc2ccccn2)ccc2ccccc12)C(=O)OCc1ccccn1 [Compound 36] | – | – | – | – | – | > 62.6 | > 62.6 | > 62.6 | > 62.6 | > 62.6
